Assays:
[1] = 101 kPa, Liquid
[2] = xn = mol fraction of the nth substance listed; details: 101 kPa, Liquid, x1 = 1

CCOS(=O)(=O)[O-].CCn1cc[n+](C)c1 [1-ethyl-3-methylimidazolium ethyl sulfate]
[1]
Details	mass density [kg/m3]	viscosity [mPa·s]
278.15 K	1251.12	308
288.15 K	1244.13	166
298.15 K	1237.37	95
308.15 K	1230.61	62
318.15 K	1223.9	41
328.15 K	1217.23	30
338.15 K	1210.6	21
348.15 K	1204.01	17

CCn1cc[n+](C)c1.O=C([O-])C(F)(F)F [1-ethyl-3-methylimidazolium trifluoroacetate]
[1]
Details	mass density [kg/m3]	viscosity [mPa·s]
278.15 K	1306.89	78
288.15 K	1298.81	48
298.15 K	1290.8	32
308.15 K	1282.85	23
318.15 K	1274.95	17
328.15 K	1267.12	13
338.15 K	1259.35	10
348.15 K	1251.63	9

CCn1cc[n+](C)c1.O=S(=O)([O-])C(F)(F)F [1-ethyl-3-methylimidazolium trifluoromethanesulfonate]
[1]
Details	mass density [kg/m3]	viscosity [mPa·s]
278.15 K	1400.52	96
288.15 K	1392.04	61
298.15 K	1383.6	41
308.15 K	1375.22	29
318.15 K	1366.9	21
328.15 K	1358.63	16
338.15 K	1350.43	13
348.15 K	1342.3	11

O [water] + CCOS(=O)(=O)[O-].CCn1cc[n+](C)c1
[2]
Details	mass density [kg/m3]
278.15 K	999.99
308.15 K	994.06
328.15 K	985.71
338.15 K	980.56
348.15 K	974.84

O [water] + CCn1cc[n+](C)c1.O=C([O-])C(F)(F)F
[2]
Details	mass density [kg/m3]
278.15 K	999.99
308.15 K	994.06
328.15 K	985.71
338.15 K	980.56
348.15 K	974.84

O [water] + CCn1cc[n+](C)c1.O=S(=O)([O-])C(F)(F)F
[2]
Details	mass density [kg/m3]
278.15 K	999.99
308.15 K	994.06
328.15 K	985.71
338.15 K	980.56
348.15 K	974.84

Source: the NIST ThermoML archive (doi:10.1021/je0602824)
